Results taken from patent publication US20050032646A1, “Agents for the regulation of gametophytic self-incompatibility and a control method for the breakdown of gametophytic self-incompatibility using the agents” (priority 2002, published 2005).
Values belong to the compound of their own block, whether it stands above or below them.

Columns and labels:
[1] = tested on: Hongro apple; experiment: Breakdown of the self-incompatibility in Hongro apple (self-pollination rate, field); assay type: in vivo; details: 25 days after the treatment
Method: In the field application experiment, Hongro apple (the Rosaceae) which has a very low self-pollination rate (<5%) was isolated single-genetically by covering up whole plants with a fine-meshed net to exclude any pollinating insects. The agent of the present invention was treated enough to get-wet flowers at various concentrations with a micro-spray at 9:00-11:00 AM. The target of the agent was the first-blooming primary apple flower. The self-pollination rate was investigated 25 days after the treatment and compared with no treatment and artificial cross-pollination.

[2] = tested on: style-specific S RNase of Fuji apple; experiment: Inhibition of the activity of a style-specific S RNase by the agents; assay type: biochemical; details: for OD (2.0 mM): optical density at 260 nm (A260), agent 2.0 mM, no treatment 1.10; for inhibiting effect for a style-specific S RNase: enzyme assay, result in words
Method: Inhibition of S RNase activity by an agent of the present invention was measured as follows: The standard solution of 500 μL of 10 mM sodium phosphate (pH 7.0) with an agent (2.0 mM), and 500 μL of torula yeast rRNA (5 mg/mL) was pre-incubated for 10 min at 37° C. To the substrate solution, the 20 μL of the style-specific S RNase (200 ng) of Fuji apple was added, then the solution was incubated for 30 min at 37° C. A fraction of 200 μL was collected and 40 μL of stop buffer (ice-cold 25% HCIO4, 0.75% uranyl acetate) was added, then mixed and centrifuged at 12,000 rpm for 5 min. And 50 μL of the supernatant was diluted with 950 μL of dd H2O, then the solution was centrifuged and measured the optical density at 260 nm (A260) (Singh A. et al., Plant Physilolgy, 96: 61-68,1991).

[3] = tested on: 20-Century pear; experiment: Breakdown of the self-incompatibility in 20-century pear (fertilization rate, field); assay type: in vivo; details: 600 μM, sprayed 5 and 2 days before full bloom, 14 days after the treatment
Method: In a field test, 20-Century pear (the Rosaceae) which has self-incompatibility system was isolated single-genetically by covering up selected branches or whole plants with a fine-meshed net to exclude any pollinating insects. The aqueous of 600 μM solution of an agent of the present invention was treated enough to get-wet flowers with a micro-spray at 9:00-11:00 AM. The agent solution was micro-sprayed 2 times; first at 5 days before full bloom and second at 2 days before full bloom. The reference was artificial cross-pollination at full bloom. The fertilization rate was investigated 14 days after the treatment and compared with no treatment and artificial cross-pollination.

[4] = tested on: Lycopersicon peruvianum; experiment: Breakdown of the self-incompatibility in Lycopersicon peruvianum (fruition rate, greenhouse); assay type: in vivo
Method: To verify the inhibition of a style-specific S RNase and the suppression of SI system with an agent of the present invention in a practical cultivating Environment, a wild-type tomato (Lycopersicon peruvianum) which has a gametophytic SI system was cultivated in a greenhouse at genetically insulated environment and was treated with an S RNase inhibitor of the present invention.
To determine the treatment period of an S RNase inhibitor, the inhibitor was applied to flowers either at the early blooming period (budding formation period to full blooming), or the middle blooming period (full blooming), or the late blooming period (1 day after full blooming period of petal), respectively. Each inhibitors in 0.1 mM aqueous solution (except the ZnSO4 (1 mM) and CuSO4 (1.0 mM) solution) was treated enough to get-wet flowers ith a micro-spray at 9:00-11:00 AM when the pollination of plant occurs most actively. The experiment with 25 blooming flowers (organ containing a stamen, a stigma, a petal, etc.) was repeated 4 times and the fruition rate ws investigated and the results are shown in Table 2.

[5] = tested on: Hongro apple flowers; experiment: Side-effect of the agents toward Hongro apple flowers; assay type: in vivo; design: key: 0: no side-effect is observed, and it is same as no treatment of the agents; 1: the side-effect are observed in flowers, but they recover to normal fruition in a week; 2: a fall-out of flowers and 10% decrease in fruition rate; 3: about 40% loss; 4: 60% loss; 5: a severe loss in fruition
Method: To investigate the side-effect of the agent, various concentrations of the agents were treated to the flowers of Hongro apple.

[6] = agent 1.0 mM, treated 1 day after full blooming
[7] = agent 1.0 mM, treated 1 day before full blooming
[8] = agent 1.0 mM, treated 2 days after full blooming
[9] = agent 1.0 mM, treated 2 days before full blooming
[10] = agent 1.0 mM, treated 3 days before full blooming
[11] = agent 1.0 mM, treated 4 days before full blooming
[12] = agent 1.0 mM, treated 5 days before full blooming
[13] = agent 1.0 mM, treated 6 days before full blooming
[14] = agent 1.0 mM, treated 7 days before full blooming
[15] = agent 1.0 mM, treated at full blooming (0 day)
[16] = agent 0.1 mM, treated 1 day after full blooming
[17] = agent 0.1 mM, treated 1 day before full blooming
[18] = agent 0.1 mM, treated 2 days after full blooming
[19] = agent 0.1 mM, treated 2 days before full blooming
[20] = agent 0.1 mM, treated 3 days before full blooming
[21] = agent 0.1 mM, treated 4 days before full blooming
[22] = agent 0.1 mM, treated 5 days before full blooming
[23] = agent 0.1 mM, treated 6 days before full blooming
[24] = agent 0.1 mM, treated 7 days before full blooming
[25] = agent 0.1 mM, treated at full blooming (0 day)

SMILES: COCCOCCOCC(=O)[O-].COCCOCCOCC(=O)[O-].[Cu+2] [Cu(II) 2-{2-(2-methoxyethoxy)ethoxy} acetate]
- self-pollination rate ([1]; concentration 0.01 mM): >10%
- self-pollination rate ([1]; concentration 0.03 mM): >20%
- self-pollination rate ([1]; concentration 0.10 mM): >50%
- self-pollination rate ([1]; concentration 0.30 mM): >50%
- self-pollination rate ([1]; concentration 1.0 mM): >50%

- OD (2.0 mM) [2]: 0.73
SMILES: O=C([O-])[C@H](O)[C@@H](O)[C@H](O)[C@H](O)CO.O=C([O-])[C@H](O)[C@@H](O)[C@H](O)[C@H](O)CO.[Zn+2] [Zn(II) Gluconate]
- fertilization rate [3]: 48%

SMILES: COCCOCCOCC(=O)[O-].COCCOCCOCC(=O)[O-].[Zn+2] [Zn(II) 2-{2-(2-methoxyethoxy)ethoxy} acetate]
- self-pollination rate ([1]; concentration 0.01 mM): >10%
- self-pollination rate ([1]; concentration 0.03 mM): >30%
- self-pollination rate ([1]; concentration 0.10 mM): >50%
- self-pollination rate ([1]; concentration 0.30 mM): >50%
- self-pollination rate ([1]; concentration 1.0 mM): >50%

SMILES: CCOCCOCC(=O)[O-].CCOCCOCC(=O)[O-].[Zn+2] [Zn(II) 2-ethoxy ethoxy acetate]
- self-pollination rate ([1]; concentration 0.01 mM): >5%
- self-pollination rate ([1]; concentration 0.03 mM): >20%
- self-pollination rate ([1]; concentration 0.10 mM): >50%
- self-pollination rate ([1]; concentration 0.30 mM): >60%
- self-pollination rate ([1]; concentration 1.0 mM): >60%

- OD (2.0 mM) [2]: 0.72
SMILES: O=S(=O)([O-])[O-].[Zn+2] [ZnSO4, reference compound]
- fruition rate [4, 6]: 0%
- fruition rate [4, 7]: 0%
- fruition rate [4, 8]: 0%
- fruition rate [4, 9]: 0%
- fruition rate [4, 10]: <5%
- fruition rate [4, 11]: >5%
- fruition rate [4, 12]: >5%
- fruition rate [4, 13]: >10%
- fruition rate [4, 14]: >10%
- fruition rate [4, 15]: 0%
- self-pollination rate ([1]; concentration 0.01 mM): 0%
- self-pollination rate ([1]; concentration 0.03 mM): 0%
- self-pollination rate ([1]; concentration 0.10 mM): 0%
- self-pollination rate ([1]; concentration 0.30 mM): 0%
- self-pollination rate ([1]; concentration 1.0 mM): <10%
- side-effect index ([5]; 1.0 mM): 2
- side-effect index ([5]; 5.0 mM): 5
- side-effect index ([5]; 20.0 mM): 5

- OD (2.0 mM) [2]: 0.63
SMILES: COCCOCCOCC(=O)[O-].COCCOCCOCC(=O)[O-].[Cu+2] [Cu(II) 2-(2-methoxyethoxy)ethoxyacetete, Cu(II) 2-(2-methoxyethoxy) ethoxyacetete]
- fruition rate [4, 16]: 0%
- fruition rate [4, 17]: >60%
- fruition rate [4, 18]: 0%
- fruition rate [4, 19]: >50%
- fruition rate [4, 20]: >10%
- fruition rate [4, 21]: <10%
- fruition rate [4, 22]: 0%
- fruition rate [4, 23]: 0%
- fruition rate [4, 24]: 0%
- fruition rate [4, 25]: >50%
- side-effect index ([5]; 1.0 mM): 0
- side-effect index ([5]; 5.0 mM): 0
- side-effect index ([5]; 20.0 mM): 1
- fertilization rate [3]: 53%

- OD (2.0 mM) [2]: 0.67
SMILES: CCCOCCOCCOCC(=O)[O-].CCCOCCOCCOCC(=O)[O-].[Cu+2] [Cu(II) 2-(2-propoxyethoxy)ethoxyacetate, Cu(II) 2-(2-propoxyethoxy) ethoxyacetate]

- OD (2.0 mM) [2]: 0.75
SMILES: CCCOCC(=O)[O-].CCCOCC(=O)[O-].[Zn+2] [Zn(II) propoxyacetate]

- OD (2.0 mM) [2]: 0.75
SMILES: O=C[O-].O=C[O-].[Zn+2] [Zn(II) Formate]

- OD (2.0 mM) [2]: 0.73
SMILES: COC(C)C(=O)[O-].COC(C)C(=O)[O-].[Zn+2] (stereo not drawn) [Zn(II) 2-methoxypropionate]

SMILES: O=S(=O)([O-])[O-].[Ca+2] [CaSO4, reference compound]
- inhibiting effect for a style-specific S RNase [2]: didn't show any positive inhibiting effect

SMILES: Cc1ccc(S(=O)(=O)[O-])cc1.Cc1ccc(S(=O)(=O)[O-])cc1.[Zn+2] [Zn(II) p-toluene sulfonate]
- OD (2.0 mM) [2]: 0.72

- OD (2.0 mM) [2]: 0.70
SMILES: O=C([O-])[C@H](O)[C@@H](O)[C@H](O)[C@H](O)CO.O=C([O-])[C@H](O)[C@@H](O)[C@H](O)[C@H](O)CO.[Cu+2] [Cu(II) Gluconate]
- fertilization rate [3]: 51%

- OD (2.0 mM) [2]: 0.70
SMILES: O=S(=O)([O-])[O-].[Cu+2] [CuSO4, reference compound]
- fruition rate [4, 6]: 0%
- fruition rate [4, 7]: 0%
- fruition rate [4, 8]: 0%
- fruition rate [4, 9]: 0%
- fruition rate [4, 10]: <5%
- fruition rate [4, 11]: <5%
- fruition rate [4, 12]: >10%
- fruition rate [4, 13]: >10%
- fruition rate [4, 14]: >10%
- fruition rate [4, 15]: 0%
- self-pollination rate ([1]; concentration 0.01 mM): 0%
- self-pollination rate ([1]; concentration 0.03 mM): 0%
- self-pollination rate ([1]; concentration 0.10 mM): 0%
- self-pollination rate ([1]; concentration 0.30 mM): 0%
- self-pollination rate ([1]; concentration 1.0 mM): <10%
- side-effect index ([5]; 1.0 mM): 3
- side-effect index ([5]; 5.0 mM): 5
- side-effect index ([5]; 20.0 mM): 5

- OD (2.0 mM) [2]: 0.72
SMILES: COC(C)C(=O)[O-].COC(C)C(=O)[O-].[Cu+2] (stereo not drawn) [Cu(II) 2-methoxypropionate]

- OD (2.0 mM) [2]: 0.71
SMILES: CC(=O)[O-].CC(=O)[O-].[Zn+2] [Zn(II) Acetate]

SMILES: COCCOCC(=O)[O-].COCCOCC(=O)[O-].[Cu+2] [Cu(II) 2-(2-methoxyethoxy) acetate]
- self-pollination rate ([1]; concentration 0.01 mM): >10%
- self-pollination rate ([1]; concentration 0.03 mM): >30%
- self-pollination rate ([1]; concentration 0.10 mM): >50%
- self-pollination rate ([1]; concentration 0.30 mM): >50%
- self-pollination rate ([1]; concentration 1.0 mM): >50%

- OD (2.0 mM) [2]: 0.65
SMILES: COCCOCC(=O)[O-].COCCOCC(=O)[O-].[Cu+2] [Cu(II) 2-methoxyethoxyacetate]
- fruition rate [4, 16]: 0%
- fruition rate [4, 17]: >50%
- fruition rate [4, 18]: 0%
- fruition rate [4, 19]: >40%
- fruition rate [4, 20]: >10%
- fruition rate [4, 21]: <10%
- fruition rate [4, 22]: 0%
- fruition rate [4, 23]: 0%
- fruition rate [4, 24]: 0%
- fruition rate [4, 25]: >40%
- side-effect index ([5]; 1.0 mM): 0
- side-effect index ([5]; 5.0 mM): 0
- side-effect index ([5]; 20.0 mM): 2
- fertilization rate [3]: 58%

SMILES: O=S(=O)([O-])[O-].[Li+].[Li+] [Li2SO4, reference compound]
- inhibiting effect for a style-specific S RNase [2]: didn't show any positive inhibiting effect

SMILES: O=S(=O)([O-])c1ccccc1.O=S(=O)([O-])c1ccccc1.[Cu+2] [Cu(II) Benzene sulfonate]
- OD (2.0 mM) [2]: 0.72

- OD (2.0 mM) [2]: 0.69
SMILES: CCCC(=O)[O-].CCCC(=O)[O-].[Cu+2] [Cu(II) Butyrate]

- OD (2.0 mM) [2]: 0.70
SMILES: CC(=O)[O-].CC(=O)[O-].[Cu+2] [Cu(II) Acetate]

- OD (2.0 mM) [2]: 0.70
SMILES: C=C(C)C(=O)[O-].C=C(C)C(=O)[O-].[Zn+2] [Zn(II) metacrylate]

- OD (2.0 mM) [2]: 0.72
SMILES: C[C@H](O)C(=O)[O-].C[C@H](O)C(=O)[O-].[Cu+2] [Cu(II) L-lactate]

SMILES: CCOCCOc1ccc(S(=O)(=O)[O-])cc1.CCOCCOc1ccc(S(=O)(=O)[O-])cc1.[Cu+2] [Cu(II) 4-(2-ethoxyethoxy) benzene sulfonate]
- OD (2.0 mM) [2]: 0.72

- OD (2.0 mM) [2]: 0.72
SMILES: CCCOC(C)C(=O)[O-].CCCOC(C)C(=O)[O-].[Zn+2] (stereo not drawn) [Zn(II) 2-propoxypropionate]
